According to the supplement of paper PMC10307832:

Key:
Test in all cases: relative viability (nuclei count vs DMSO), 5 days (fraction); higher = more cells survive
NCI-H650 = system: NCI-H650
How it was run: (§1)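 Nuclei were stained with Hoechst during a one-step fixation (final 0.05% Triton X-100, 1% formaldehyde, 1 ug/ml Hoechst) carried out 5 days after dosing, then counted on 4× images. The cells, lung cancer lines in 1536-well plates, had been dosed by pin tool the day after seeding with one drug alone or a fixed anchor-drug dose plus five library-drug doses (not always all listed) in √10 steps. Relative viability is the nuclei count in treated wells divided by that in vehicle wells, and each value is the median of duplicate plates.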

NCI-H838 = system: NCI-H838
How it was run: as §1

ChaGo-K-1 = system: ChaGo-K-1
How it was run: as §1

NCI-H1975 = system: NCI-H1975
How it was run: as §1

PC-3 [JPC-3] = system: PC-3 [JPC-3]
How it was run: as §1

NCI-H1355 = system: NCI-H1355
How it was run: as §1

HCC-78 = system: HCC-78
How it was run: as §1

NCI-H358 = system: NCI-H358
How it was run: as §1

BEN = system: BEN
How it was run: as §1

LK-2 = system: LK-2
How it was run: as §1

NCI-H1944 = system: NCI-H1944
How it was run: as §1

LC-2-ad = system: LC-2-ad
How it was run: as §1

NCI-H596 = system: NCI-H596
How it was run: as §1

SK-MES-1 = system: SK-MES-1
How it was run: as §1

NCI-H661 = system: NCI-H661
How it was run: as §1

NCI-H1666 = system: NCI-H1666
How it was run: as §1

LXF-289 = system: LXF-289
How it was run: as §1

LU99A = system: LU99A
How it was run: as §1

NCI-H1651 = system: NCI-H1651
How it was run: as §1

NCI-H2087 = system: NCI-H2087
How it was run: as §1

LCLC-97TM1 = system: LCLC-97TM1
How it was run: as §1

`COc1cc2nccc(Oc3ccc(NC(=O)Nc4cc(C)on4)c(Cl)c3)c2cc1OC` [Tivozanib] + C[C@@H](Oc1cc(-c2cnn(C3CCNCC3)c2)cnc1N)c1c(Cl)ccc(F)c1Cl [Crizotinib] (partner 1 µM) gave a relative viability (NCI-H650; first compound 0.005 µM) of 0.596, a relative viability (NCI-H650; first compound 0.01581 µM) of 0.906 and a relative viability (NCI-H650; first compound 0.05 µM) of 0.891. It also gave a relative viability (NCI-H650; first compound 0.1581 µM) of 0.696, a relative viability (NCI-H650; first compound 0.5 µM) of 0.455 and a relative viability (NCI-H838; first compound 0.005 µM) of 0.886. For the same molecule, the relative viability (NCI-H838; first compound 0.01581 µM) was 0.82, the relative viability (NCI-H838; first compound 0.05 µM) was 0.857 and the relative viability (NCI-H838; first compound 0.5 µM) was 0.779. For the same molecule, the relative viability (ChaGo-K-1; first compound 0.005 µM) was 1.05, the relative viability (ChaGo-K-1; first compound 0.01581 µM) was 1.17 and the relative viability (ChaGo-K-1; first compound 0.05 µM) was 1.19. For the same molecule, the relative viability (ChaGo-K-1; first compound 0.1581 µM) was 1.17, the relative viability (ChaGo-K-1; first compound 0.5 µM) was 0.849 and the relative viability (NCI-H1975; first compound 0.005 µM) was 1.03. For the same molecule, the relative viability (NCI-H1975; first compound 0.01581 µM) was 0.856, the relative viability (NCI-H1975; first compound 0.05 µM) was 0.944 and the relative viability (NCI-H1975; first compound 0.1581 µM) was 0.833. The relative viability (NCI-H1975; first compound 0.5 µM) was 0.826, the relative viability (PC-3 [JPC-3]; first compound 0.005 µM) was 0.912 and the relative viability (PC-3 [JPC-3]; first compound 0.01581 µM) was 0.997. The relative viability (PC-3 [JPC-3]; first compound 0.05 µM) was 0.991, the relative viability (PC-3 [JPC-3]; first compound 0.1581 µM) was 1.02 and the relative viability (PC-3 [JPC-3]; first compound 0.5 µM) was 1.02. It also gave a relative viability (NCI-H1355; first compound 0.005 µM) of 1.03, a relative viability (NCI-H1355; first compound 0.01581 µM) of 1.03 and a relative viability (NCI-H1355; first compound 0.05 µM) of 1.08. It also gave a relative viability (NCI-H1355; first compound 0.5 µM) of 1.07, a relative viability (HCC-78; first compound 0.005 µM) of 0.352 and a relative viability (HCC-78; first compound 0.01581 µM) of 0.365. It also gave a relative viability (HCC-78; first compound 0.05 µM) of 0.313, a relative viability (HCC-78; first compound 0.1581 µM) of 0.364 and a relative viability (HCC-78; first compound 0.5 µM) of 0.351. It also gave a relative viability (NCI-H358; first compound 0.005 µM) of 0.594, a relative viability (NCI-H358; first compound 0.01581 µM) of 0.706 and a relative viability (NCI-H358; first compound 0.05 µM) of 0.622. For the same molecule, the relative viability (NCI-H358; first compound 0.1581 µM) was 0.604, the relative viability (NCI-H358; first compound 0.5 µM) was 0.462 and the relative viability (BEN; first compound 0.005 µM) was 0.966. The relative viability (BEN; first compound 0.01581 µM) was 0.865, the relative viability (BEN; first compound 0.05 µM) was 0.647 and the relative viability (BEN; first compound 0.5 µM) was 1.01. For the same molecule, the relative viability (LK-2; first compound 0.005 µM) was 0.253, the relative viability (LK-2; first compound 0.01581 µM) was 0.264 and the relative viability (LK-2; first compound 0.05 µM) was 0.221. It also gave a relative viability (LK-2; first compound 0.1581 µM) of 0.198, a relative viability (LK-2; first compound 0.5 µM) of 0.22 and a relative viability (NCI-H1944; first compound 0.005 µM) of 1.13. The relative viability (NCI-H1944; first compound 0.01581 µM) was 1.05, the relative viability (NCI-H1944; first compound 0.05 µM) was 1.1 and the relative viability (NCI-H1944; first compound 0.1581 µM) was 1.02. It also gave a relative viability (NCI-H1944; first compound 0.5 µM) of 1.28, a relative viability (LC-2-ad; first compound 0.005 µM) of 0.413 and a relative viability (LC-2-ad; first compound 0.01581 µM) of 0.426. The relative viability (LC-2-ad; first compound 0.05 µM) was 0.522, the relative viability (LC-2-ad; first compound 0.1581 µM) was 0.468 and the relative viability (LC-2-ad; first compound 0.5 µM) was 0.347. The relative viability (NCI-H596; first compound 0.005 µM) was 0.947, the relative viability (NCI-H596; first compound 0.01581 µM) was 0.903 and the relative viability (NCI-H596; first compound 0.05 µM) was 0.961. For the same molecule, the relative viability (NCI-H596; first compound 0.1581 µM) was 0.861, the relative viability (NCI-H596; first compound 0.5 µM) was 0.966 and the relative viability (SK-MES-1; first compound 0.005 µM) was 1.02. It also gave a relative viability (SK-MES-1; first compound 0.01581 µM) of 1.03, a relative viability (SK-MES-1; first compound 0.05 µM) of 1 and a relative viability (SK-MES-1; first compound 0.1581 µM) of 0.995. It also gave a relative viability (SK-MES-1; first compound 0.5 µM) of 0.87, a relative viability (NCI-H661; first compound 0.005 µM) of 0.961 and a relative viability (NCI-H661; first compound 0.01581 µM) of 0.951. The relative viability (NCI-H661; first compound 0.05 µM) was 1.03, the relative viability (NCI-H661; first compound 0.5 µM) was 0.947 and the relative viability (NCI-H1666; first compound 0.005 µM) was 0.963. For the same molecule, the relative viability (NCI-H1666; first compound 0.01581 µM) was 0.905, the relative viability (NCI-H1666; first compound 0.05 µM) was 0.901 and the relative viability (NCI-H1666; first compound 0.1581 µM) was 1.21. It also gave a relative viability (NCI-H1666; first compound 0.5 µM) of 0.853, a relative viability (LXF-289; first compound 0.005 µM) of 0.762 and a relative viability (LXF-289; first compound 0.01581 µM) of 0.742. The relative viability (LXF-289; first compound 0.05 µM) was 0.82, the relative viability (LXF-289; first compound 0.1581 µM) was 0.864 and the relative viability (LXF-289; first compound 0.5 µM) was 0.705. The relative viability (LU99A; first compound 0.005 µM) was 0.549, the relative viability (LU99A; first compound 0.01581 µM) was 0.537 and the relative viability (LU99A; first compound 0.05 µM) was 0.555. The relative viability (LU99A; first compound 0.5 µM) was 0.482, the relative viability (NCI-H1651; first compound 0.005 µM) was 0.896 and the relative viability (NCI-H1651; first compound 0.01581 µM) was 0.91. For the same molecule, the relative viability (NCI-H1651; first compound 0.05 µM) was 0.796, the relative viability (NCI-H1651; first compound 0.1581 µM) was 0.84 and the relative viability (NCI-H1651; first compound 0.5 µM) was 0.92. It also gave a relative viability (NCI-H2087; first compound 0.005 µM) of 0.797, a relative viability (NCI-H2087; first compound 0.01581 µM) of 0.862 and a relative viability (NCI-H2087; first compound 0.05 µM) of 0.882. The relative viability (NCI-H2087; first compound 0.1581 µM) was 0.917, the relative viability (NCI-H2087; first compound 0.5 µM) was 0.668 and the relative viability (LCLC-97TM1; first compound 0.005 µM) was 0.224. The relative viability (LCLC-97TM1; first compound 0.01581 µM) was 0.302, the relative viability (LCLC-97TM1; first compound 0.1581 µM) was 0.365 and the relative viability (LCLC-97TM1; first compound 0.5 µM) was 0.46.
